Where “and” joins values, the source holds several entries; their conditions need not be identical. Equal entries are not always repeated. Where two headings read alike, the source gives them in different places.
What was measured:
[1] = molecular target: DR1-HA (Homo sapiens, UniProt P01903+P01911, A100R/D57E/F55L/F60I/F76Y/I96L/L162R/M171V/P40L/Q125E/R42F/V115G/Y59C); assay: activation of sodium aurothiomalate by hypochlorite, peptide release ELISA; assay type: binding; conditions: pH 7.4, final compound 10 μM, oxidant 0-10 μM, overnight 37° C.
Procedure: Activation of sodium aurothiomalate (sodium Au(I)-thiomalate, 8) by sodium hypochlorite (NaOCl). Sodium aurothiomalate (8; 300 μM) and a control, thiomalate (D,L-mercaptosuccinic acid, 9), were dissolved in PBS and incubated for 1 h at 20° C. with increasing concentrations of NaOCl. After 1 h, 5 μl of each reaction stock solution was added to DR1-HA-biotin (0.1 μM) in PBS (pH 7.4). The final concentration of compounds 8 and 9 was 10 μM. After incubation of the protein with added compound overnight at 37° C., the amount of biotinylated HA peptide that bound to DR1 was determined by chemiluminescent ELISA.
Activation of sodium aurothiomalate (Au(I)-thiomalate, 8) by sodium hypochlorite (NaOCl). The concentration of sodium hypochlorite (NaOCl) solution was determined prior to each use by measuring the absorbance at 292 nm (ε292=350 M^−1cm^−1). Sodium aurothiomalate (8), 300 μM, was incubated for one hour at 20° C. in the presence of increasing concentrations of NaOCl (0 μM, 100 μM, 125 μM, 150 μM, and 300 μM) in PBS (pH 7.4). As a control, thiomalate (D,L-mercaptosuccinic acid, 9), 300 μM, was also treated with the identical concentrations of NaOCl. After one hour, 5 μL of each reaction stock solution was added to 145 μL of DR1-HA-biotin complex in PBS (pH 7.4). The final protein concentration was 0.1 μM and the final concentration of compounds 8 and 9 was 10 μM. Final concentrations of oxidant were 0, 3.33, 4.17, 5 and 10 μM. Each concentration of oxidant was tested in quadruplicate. After incubating overnight at 37° C., the amount of biotinylated HA peptide that remained bound to DR1 was determined using the chemiluminescent ELISA described above.

[2] = molecular target: DR1-CLIP (fluorescently labeled CLIP bound to HLA-DR1) (Homo sapiens, UniProt P01903+P01911, A100R/D57E/F55L/F60I/F76Y/I96L/L162R/M171V/P40L/Q125E/R42F/V115G/Y59C); assay: fluorescence polarization screen of peptide release from DR1-CLIP (high-throughput and focused metal screen); assay type: binding; conditions: for ability to disrupt DR1-CLIP association, focused screen of metal complexes (FIG. 1a): 250 μM, ~20 h, 37° C., pH 5.0; for activity in high-throughput screen (peptide release by fluorescence polarization): 28,000 compounds screened, HLA-DM present, pH 5
Procedure: To find small-molecule modulators of class II MHC-peptide interactions, we used a high-throughput, fluorescence polarization assay to screen 28,000 compounds and natural extracts. Each well of a microplate contained a fluorescently labeled class II-associated invariant chain peptide (CLIP) bound to human leukocyte antigen (HLA)-DR1, a class II MHC protein. In addition, HLA-DM, a peptide exchange catalyst required in vivo for efficient loading, was present. The assay was performed at pH 5 to simulate endosomal pH (Morris P et al. (1994) Nature 368:551-4; Weber D A et al. (1996) Science 274:618-20). Compounds were added to the plates by pin transfer and monitored peptide release by fluorescence polarization. The screen uncovered only two active compounds, cisplatin (1) and carboplatin (2), both platinum(II) complexes.
Fluorescence polarization (FP) based binding assay used for small molecule screening. A FP assay was developed in order to screen small-molecule libraries for chemicals that could modulate peptide binding by class II MHC proteins. The fluorescent DR1-CLIP-AlexaFluor488 (0.1 μM) was used for all FP studies. The concentration of DM used in the screening assay, and when included as a control, was 0.1 μM. Experiments were carried out in a final volume of 40 μl in black, 384-well assay plates (non-binding surface, Costar). The plate was sealed with an aluminum foil seal (Costar), placed in a sealed humidified container, and incubated at 37° C. The FP values for each experimental well were determined using a plate reader (Analyst, LJL Biosystems). A total of 27,937 compounds from several commercial sources were screened using this assay. This assay format was also used to screen several metal complexes and chloride salts as wells as for kinetic studies.
Focused screen of metal complexes using the FP assay. Based on the results of the primary small molecule screen, a focused screen consisting of several metal complexes and chloride salts was performed using the fluorescence polarization assay. […]. These were tested in duplicate at a concentration of 250 μM. For the focused screen, DR1 (100 nM) bound to a Alexa-Fluor 488-labeled CLIP (af-CLIP) peptide was incubated with several metal complexes and salts (250 μM) for ˜20 h (37° C., pH 5.0), and then peptide release was measured by a fluorescence polarization assay. For comparison, the FP of labeled DR1-CLIP incubated with and without excess unlabeled HA peptide and the FP of af-CLIP peptide alone were also measured.

[3] = molecular target: DR1-CLIP complex (Homo sapiens, UniProt P01903+P01911, A100R/D57E/F55L/F60I/F76Y/I96L/L162R/M171V/P40L/Q125E/R42F/V115G/Y59C); assay: chemiluminescent ELISA of metal-induced peptide release, DR1-CLIP; assay type: binding; conditions: for IC50: read-out: IC50 for CLIP release from DR1
[4] = molecular target: DR1-HA(306-318) complex (Homo sapiens, UniProt P01903+P01911, A100R/D57E/F55L/F60I/F76Y/I96L/L162R/M171V/P40L/Q125E/R42F/V115G/Y59C); assay: chemiluminescent ELISA of metal-induced peptide release, DR1-HA; assay type: binding; conditions: read-out: IC50 for HA peptide release from DR1
[5] = test system: HA peptide-loaded LG-2 cells presented to influenza-specific T cell hybridoma; assay: T cell activation assay (IL-2 release); assay type: cell-based; conditions: 1-100 μM, APCs treated […], IL-2 ELISA (FIG. 4c)
[6] = test system: peptide-class II MHC complex; assay: inhibition of peptide-class II MHC complex formation, cis versus trans; assay type: binding
[7] = pH 5, overnight 37° C., without DM

O=C(O)CC(S)C(=O)O (racemic) [thiomalate, D,L-mercaptosuccinic acid]
peptide release from DR1-HA after treatment of compound with hypochlorite [1]: does not have an effect | peptide release from DR1-HA after treatment of compound with hypochlorite ([1]; listed as 9): did not

[Cl][Pd-2]([Cl])([Cl])[Cl].[K+].[K+] [Compound K2PdCl4, K2PdCl4]
ability to disrupt DR1-CLIP association, focused screen of metal complexes (FIG. 1a) [2]: active | IC50 [3, 7]: 3480 ± 370 nM

[Au+].[C-]#N.[C-]#N.[K+] [K[Au^I(CN)2]]
ability to disrupt DR1-CLIP association, focused screen of metal complexes (FIG. 1a) [2]: did not release peptide from DR1

[Cl][Ni][Cl] [NiCl2]
ability to disrupt DR1-CLIP association, focused screen of metal complexes (FIG. 1a) [2]: inactive | activity in titration of DR1-CLIP complex (FIG. 1b) ([3]; pH 5): inactive

N.N.O=C([O-])C1(C(=O)[O-])CCC1.[Pt+2] [carboplatin, diammine[1,1-cyclobutane-dicarboxylato(2-)-O,O′]—Pt^II]
activity in high-throughput screen (peptide release by fluorescence polarization) [2]: active

N.N.[Cl][Pt][Cl] [cisplatin, cis-diamminedichloroplatinum (II)]
activity in high-throughput screen (peptide release by fluorescence polarization) [2]: active | IC50 [3, 7]: 2660 ± 690 nM | IC50 ([3]; pH 7.4): 770 ± 30 nM | IC50 ([4]; pH 5): ~4000 nM and 5490 nM | IC50 ([4]; pH 7.4): ~1000 nM and 1060 nM | inhibition of T-cell activation by metal-pretreated antigen-presenting cells [5]: blocked | inhibition of T-cell activation by metal-pretreated antigen-presenting cells ([5]; listed as Cisplatin): more potent | activity as inhibitor of peptide-class II MHC complex formation [6]: active

O=C([O-])CC([S-])C(=O)[O-].[Au+].[Na+].[Na+] (stereo not drawn) [sodium Au(I)-thiomalate, sodium aurothiomalate]
activity in titration of DR1-CLIP complex (FIG. 1b) ([3]; pH 5): did not release peptide from DR1 | activity in titration of DR1-CLIP complex (FIG. 1b) ([3]; pH 5, listed as sodium aurothiomalate): inactive | peptide release from DR1-HA after treatment of compound with hypochlorite [1]: causes peptide release from DR1 | peptide release from DR1-HA after treatment of compound with hypochlorite ([1]; listed as 8): caused peptide release

N.N.[Cl][Pt+2][Cl] [transplatin]
activity as inhibitor of peptide-class II MHC complex formation [6]: is not

From patent US20080044405A1, “Noble metal complex-mediated immunosuppression” (President and Fellows of Harvard College, priority 2006, published 2008)
